Laboratory results as given in patent US9809808B2, “Antimicrobial agents” (KATHOLIEKE UNIVERSITEIT LEUVEN K.U. LEUVEN R&D, priority 2008, dated 2017).
Values joined by “and” are separate entries in the source; they are usually repeats but may differ in a detail not shown here. Equal entries are not always repeated. Where two headings read alike, the source gives them in different places.

How the values were obtained:
P. aeruginosa Br667 = format: cell-based, Pseudomonas aeruginosa
[1] = tested on: Burkholderia pseudomallei; format: cell-based; settings: 30 minutes
[2] = tested on: Salmonella typhimurium LT2; format: cell-based; settings: 30 minutes
Escherichia coli WK6 = format: cell-based
P. putida G1 = format: cell-based, Pseudomonas putida
[3] = tested on: Gram-negative strains of Table 12; format: cell-based
[4] = tested on: Pseudomonas aeruginosa PAO1p cells; experiment: Effect of different EDTA and endolysin concentrations on antibacterial activity of OBPgpLYS and PKOBPgpLYS; format: cell-based
Experimental: To determine the influence of EDTA on the antibacterial activity of unmodified and modified endolysins the antibacterial activity of the unmodified OBPgpLYS endolysin (SEQ ID NO: 7) and the PKOBPgpLYS endolysin (SEQ ID NO: 61) was tested on Pseudomonas aeruginosa PAO1p cells ([…] et al. J Clin Microbiol., 41(3):1192-1202 (2003)) using different concentrations of EDTA and endolysins. Exponential growing bacterial cells (OD600 nm of 0.6) were 100-fold diluted to a final density of about 10^6/ml and incubated for 30 minutes at room temperature without shaking with unmodified endolysin OBPgpLYS (SEQ ID NO: 7) and modified endolysin PKOBPgpLYS (SEQ ID NO: 61). […] Thereby, the following different EDTA concentrations were used: 0 mM, 0.05 mM, 0.5 mM and 10 mM. […] After incubation cell suspensions were diluted three times (respectively 10^5-10^4-10^3 cells/ml) and 100 μl of each dilution was plated out on LB-medium. […] All samples were replicated in threefold. Averages+/-standard deviations are represented.

[5] = 1.313 μM endolysin, no EDTA, 30 minutes
[6] = 1.313 μM endolysin + 0.5 mM EDTA
[7] = 0.013 μM endolysin, 0 mM EDTA-Na2, 30 minutes
[8] = 0.013 μM endolysin, 0.5 mM EDTA-Na2, 30 minutes
[9] = 0.131 μM endolysin, 0 mM EDTA-Na2, 30 minutes
[10] = 0.131 μM endolysin, 0.5 mM EDTA-Na2, 30 minutes
[11] = 1.315 μM endolysin, 0.05 mM EDTA-Na2, 30 minutes
[12] = 1.315 μM endolysin, 0.5 mM EDTA-Na2, 30 minutes
[13] = 1.315 μM endolysin, 10 mM EDTA-Na2, 30 minutes

PKOBPgpLYS: SEQ ID NO: 61: OBPgpLYS (SEQ ID NO: 7) with N-terminal peptide stretch KRKKRKKRK (SEQ ID NO: 11)
relative inactivation in logarithmic units (log10N0/Ni) (P. aeruginosa Br667): 5.272 +/− 0.573 logarithmic units | relative inactivation in logarithmic units (log10N0/Ni) (P. aeruginosa Br667; [5]): 1.163 +/− 0.063 logarithmic units | relative inactivation in logarithmic units (log10N0/Ni) [1, 6]: >4.861 logarithmic units | relative inactivation in logarithmic units (log10N0/Ni) ([1]; 1.313 μM endolysin, no EDTA): 1.806 +/− 0.287 logarithmic units | relative inactivation in logarithmic units (log10N0/Ni) [2, 6]: 0.908 +/− 0.037 logarithmic units | relative inactivation in logarithmic units (log10N0/Ni) ([2]; 1.313 μM endolysin, no EDTA): 0.127 +/− 0.013 logarithmic units | relative inactivation in logarithmic units (log10N0/Ni) (Escherichia coli WK6): 1.695 +/− 0.147 logarithmic units | relative inactivation in logarithmic units (log10N0/Ni) (Escherichia coli WK6; [5]): 1.434 +/− 0.018 logarithmic units | relative inactivation in logarithmic units (log10N0/Ni) (P. putida G1): >4.891 logarithmic units | relative inactivation in logarithmic units (log10N0/Ni) (P. putida G1; [5]): 0.904 +/− 0.079 logarithmic units | effect compared to unmodified OBPgpLYS (in words) [3]: added effect | interaction with EDTA (in words) [3]: clear synergistic effect | Δ, difference of activity between OBPgpLYS and PKOBPgpLYS samples ([4]; 0.013 μM endolysin, 0 mM EDTA-Na2): 0.036 log units | relative inactivation in logarithmic units (log10N0/Ni) [4, 7]: 0.992 +/− 0.181 log units | Δ, difference of activity between OBPgpLYS and PKOBPgpLYS samples ([4]; 0.013 μM endolysin, 0.5 mM EDTA-Na2): 0.578 log units | relative inactivation in logarithmic units (log10N0/Ni) [4, 8]: 5.204 +/− 0.000 log units | Δ, difference of activity between OBPgpLYS and PKOBPgpLYS samples ([4]; 0.131 μM endolysin, 0 mM EDTA-Na2): 0.371 log units | relative inactivation in logarithmic units (log10N0/Ni) [4, 9]: 2.529 +/− 0.184 log units | Δ, difference of activity between OBPgpLYS and PKOBPgpLYS samples ([4]; 0.131 μM endolysin, 0.5 mM EDTA-Na2): 1.072 log units | relative inactivation in logarithmic units (log10N0/Ni) [4, 10]: 5.671 +/− 0.000 log units | Δ, difference of activity between OBPgpLYS and PKOBPgpLYS samples ([4]; 1.315 μM endolysin, 0 mM EDTA-Na2): 0.5 log units and 0.548 log units | relative inactivation in logarithmic units (log10N0/Ni) ([4]; 1.315 μM endolysin, 0 mM EDTA-Na2, 30 minutes): 3.079 +/− 0.015 log units | Δ, difference of activity between OBPgpLYS and PKOBPgpLYS samples ([4]; 1.315 μM endolysin, 0.05 mM EDTA-Na2): 1.383 log units | relative inactivation in logarithmic units (log10N0/Ni) [4, 11]: 4.145 +/− 0.015 log units | Δ, difference of activity between OBPgpLYS and PKOBPgpLYS samples ([4]; 1.315 μM endolysin, 0.5 mM EDTA-Na2): >1.330 log units | relative inactivation in logarithmic units (log10N0/Ni) [4, 12]: > 5.69 log units and >5.687 log units | Δ, difference of activity between OBPgpLYS and PKOBPgpLYS samples ([4]; 1.315 μM endolysin, 10 mM EDTA-Na2): >0.799 log units | relative inactivation in logarithmic units (log10N0/Ni) [4, 13]: > 5.69 log units and >5.687 log units

OBPgpLYS: SEQ ID NO: 7: unmodified modular endolysin of 328 amino acid residues originating from Pseudomonas putida phage OBP
relative inactivation in logarithmic units (log10N0/Ni) (P. aeruginosa Br667): 3.144 +/− 0.223 logarithmic units | relative inactivation in logarithmic units (log10N0/Ni) (P. aeruginosa Br667; [5]): 1.082 +/− 0.083 logarithmic units | relative inactivation in logarithmic units (log10N0/Ni) [1, 6]: 4.08 +/− 0.301 logarithmic units | relative inactivation in logarithmic units (log10N0/Ni) ([1]; 1.313 μM endolysin, no EDTA): 0.997 +/− 0.131 logarithmic units | relative inactivation in logarithmic units (log10N0/Ni) [2, 6]: 0.774 +/− 0.052 logarithmic units | relative inactivation in logarithmic units (log10N0/Ni) ([2]; 1.313 μM endolysin, no EDTA): 0.076 +/− 0.011 logarithmic units | relative inactivation in logarithmic units (log10N0/Ni) (Escherichia coli WK6): 1.179 +/− 0.200 logarithmic units | relative inactivation in logarithmic units (log10N0/Ni) (Escherichia coli WK6; [5]): 0.681 +/− 0.032 logarithmic units | relative inactivation in logarithmic units (log10N0/Ni) (P. putida G1): 4.891 +/− 0.000 logarithmic units | relative inactivation in logarithmic units (log10N0/Ni) (P. putida G1; [5]): 0.141 +/− 0.027 logarithmic units | relative inactivation in logarithmic units (log10N0/Ni) [4, 7]: 0.956 +/− 0.110 log units | relative inactivation in logarithmic units (log10N0/Ni) [4, 8]: 4.626 +/− 0.287 log units | relative inactivation in logarithmic units (log10N0/Ni) [4, 9]: 2.158 +/− 0.027 log units | relative inactivation in logarithmic units (log10N0/Ni) [4, 10]: 4.599 +/− 0.275 log units | relative inactivation in logarithmic units (log10N0/Ni) [4, 11]: 2.762 +/− 0.091 log units | relative inactivation in logarithmic units (log10N0/Ni) [4, 12]: 4.357 +/− 1.857 log units | relative inactivation in logarithmic units (log10N0/Ni) [4, 13]: 4.888 +/− 0.275 log units
